Assay results reported in ChEMBL document CHEMBL1141382, “Studies leading to potent, dual inhibitors of Bcl-2 and Bcl-xL” (J Med Chem, 2007).

Key:
[1] = Reversal of cytokine withdrawal protection in IL3 dependent Bcl-xL overexpressing mouse FL5.12 cells
Bcl-2-like protein 1 [2] = molecular target: T1, Bcl-2-like protein 1 (Homo sapiens, UniProt Q07817); test: Displacement of Bad-derived peptide from Bcl-xL by FPA in presence of 10% human serum
FL5.12 = test: Reversal of cytokine withdrawal protection in IL3 dependent Bcl-xL overexpressing mouse FL5.12 cells in presence of 3% FBS; format: functional
Bcl-2-like protein 1 [3] = molecular target: T1, Bcl-2-like protein 1; test: Displacement of Bad-derived peptide from Bcl-xL by fluorescence polarization assay
[4] = molecular target: Apoptosis regulator Bcl-2 (Homo sapiens, UniProt P10415); test: Displacement of Bax-derived peptide from Bcl2 by fluorescence polarization assay
Sequence of Apoptosis regulator Bcl-2 (P10415 whole entry): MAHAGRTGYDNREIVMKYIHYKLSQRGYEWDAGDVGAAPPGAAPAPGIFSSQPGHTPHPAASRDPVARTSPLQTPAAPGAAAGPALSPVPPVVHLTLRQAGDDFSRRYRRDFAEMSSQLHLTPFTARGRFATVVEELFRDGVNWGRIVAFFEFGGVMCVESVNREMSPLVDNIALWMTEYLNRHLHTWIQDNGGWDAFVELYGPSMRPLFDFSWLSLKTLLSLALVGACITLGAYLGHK

T1 sequence (Q07817 whole entry): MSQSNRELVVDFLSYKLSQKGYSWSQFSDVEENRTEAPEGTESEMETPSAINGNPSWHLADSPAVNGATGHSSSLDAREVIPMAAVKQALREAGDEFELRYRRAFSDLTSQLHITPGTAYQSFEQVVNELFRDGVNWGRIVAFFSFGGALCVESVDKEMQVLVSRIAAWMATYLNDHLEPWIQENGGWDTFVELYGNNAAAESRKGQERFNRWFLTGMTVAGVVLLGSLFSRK

EC50 [1] [nM] | IC50 (Bcl-2-like protein 1 [2]) [nM] | EC50 (FL5.12) [nM] | Ki (Bcl-2-like protein 1 [3]) [nM] | Ki [4] [nM] | Structure (SMILES)
470 | 360 | 5100 | – | – | CN(C)CC[C@H](CSc1ccccc1)Nc1ccc(S(=O)(=O)NC(=O)c2ccc(N3CCC(C)(C)CC3)cc2)cc1[N+](=O)[O-]
– | < 60 | 710 | < 0.5 | < 1 | CN(C)CC[C@H](CSc1ccccc1)Nc1ccc(S(=O)(=O)NC(=O)c2ccc(N3CCN(Cc4ccccc4-c4ccc(F)cc4)CC3)cc2)cc1[N+](=O)[O-]
– | 140 | 2800 | < 0.5 | 16.9 | CN(C)CC[C@H](CSc1ccccc1)Nc1ccc(S(=O)(=O)NC(=O)c2ccc(N3CCN(Cc4ccccc4-c4cccc(Cl)c4)CC3)cc2)cc1[N+](=O)[O-]
– | < 60 | 2500 | < 0.5 | < 1 | CN(C)CC[C@H](CSc1ccccc1)Nc1ccc(S(=O)(=O)NC(=O)c2ccc(N3CCN(Cc4ccccc4-c4ccccc4Cl)CC3)cc2)cc1[N+](=O)[O-]
– | 100 | 120 | 1 | < 1 | CN(C)CC[C@H](CSc1ccccc1)Nc1ccc(S(=O)(=O)NC(=O)c2ccc(N3CCN(Cc4ccccc4-c4ccc(-c5ccccc5)cc4)CC3)cc2)cc1[N+](=O)[O-]
– | 178 | 4500 | < 0.5 | < 1 | COc1cccc(-c2ccccc2CN2CCN(c3ccc(C(=O)NS(=O)(=O)c4ccc(N[C@H](CCN(C)C)CSc5ccccc5)c([N+](=O)[O-])c4)cc3)CC2)c1
– | < 60 | 700 | < 0.5 | < 1 | COc1ccc(-c2ccccc2CN2CCN(c3ccc(C(=O)NS(=O)(=O)c4ccc(N[C@H](CCN(C)C)CSc5ccccc5)c([N+](=O)[O-])c4)cc3)CC2)cc1
